This note sets out measurements from ChEMBL document CHEMBL1641362, “Inhibition of P-glycoprotein-mediated Multidrug Resistance (MDR) by N,N-bis(cyclohexanol)amine aryl esters: further restriction of molecular flexibility maintains high potency and efficacy” (Bioorg Med Chem Lett, 2011).

The nature of the assay: Inhibition of Pgp-mediated multidrug resistance in doxorubicin-resistant human K562 cells assessed as drug level required for 50% increase in nuclear concentration of pirarubicin by fluorescence assay. Format: cell-based. The following applies: read-out: I50.
Turning to `COc1cc(CCC(=O)O[C@H]2CC[C@@H](N(C)[C@H]3CC[C@@H](OC(=O)c4cc(OC)c(OC)c(OC)c4)CC3)CC2)cc(OC)c1OC`, the IC50 stood at 1100 nM. For `COc1cc(C#CC(=O)O[C@H]2CC[C@H](N(C)[C@H]3CC[C@H](OC(=O)c4cc(OC)c(OC)c(OC)c4)CC3)CC2)cc(OC)c1OC`, the IC50 amounted to 70 nM. Regarding `COc1cc(/C=C/C(=O)O[C@H]2CC[C@H](N(C)[C@H]3CC[C@@H](OC(=O)c4cc(OC)c(OC)c(OC)c4)CC3)CC2)cc(OC)c1OC` (mixture of isomers), the IC50 is 92 nM. Turning to `COc1cc(CCC(=O)O[C@H]2CC[C@H](N(C)[C@H]3CC[C@@H](OC(=O)c4cc(OC)c(OC)c(OC)c4)CC3)CC2)cc(OC)c1OC` (mixture of isomers), the IC50 was determined as 630 nM. `COc1cc(CCC(=O)O[C@H]2CC[C@H](N(C)[C@H]3CC[C@H](OC(=O)c4cc(OC)c(OC)c(OC)c4)CC3)CC2)cc(OC)c1OC` (mixture of isomers): the IC50 was 610 nM. In the case of `COc1cc(CCC(=O)O[C@H]2CC[C@@H](N(C)[C@H]3CC[C@H](OC(=O)c4cc(OC)c(OC)c(OC)c4)CC3)CC2)cc(OC)c1OC` (mixture of isomers) it was 350 nM; in that of `COc1cc(C#CC(=O)O[C@H]2CC[C@H](N(C)[C@H]3CC[C@@H](OC(=O)c4cc(OC)c(OC)c(OC)c4)CC3)CC2)cc(OC)c1OC` (mixture of isomers), 80 nM. Regarding `COc1cc(C#CC(=O)O[C@H]2CC[C@@H](N(C)[C@H]3CC[C@@H](OC(=O)c4cc(OC)c(OC)c(OC)c4)CC3)CC2)cc(OC)c1OC` (mixture of isomers), the IC50 stood at 70 nM. On to `COc1cc(C#CC(=O)O[C@H]2CC[C@@H](N(C)[C@H]3CC[C@H](OC(=O)c4cc(OC)c(OC)c(OC)c4)CC3)CC2)cc(OC)c1OC` (mixture of isomers), for which the IC50 worked out at 20 nM.
